The values below come from patent publication US12371428B2 (Exelixis, Inc., priority 2019, dated 2025).

pIC50: −log10 of the molar value. Where only a bound is given, the exact number is not on record here.

Assay type in all cases: cell-based
Assay [1] addresses AXL (phospho-AXL, Gas6-stimulated A-172 glioblastoma cells) (Homo sapiens (Human), UniProt P30530). Nature of the assay: AXL autophosphorylation ELISA in A-172 cells (Example E). Conditions: cellular activity; AXL autophosphorylation ELISA in A-172 cells; read-out: Axl IC50. In short, it runs like this: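 Phospho-AXL in lysates was quantified by ELISA, normalised to DMSO (100%) and reference inhibitor (0%) controls. IC50 by 4-parameter logistic fit.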
Background: An ELISA detects its analyte on a solid surface through an enzyme-linked reagent.

Assay [2] concerns the target Met (phospho-Met, HGF-stimulated PC-3 prostate cancer cells) (Homo sapiens (Human), UniProt P08581). Nature of the assay: Met autophosphorylation ELISA in PC-3 cells (Example F). Conditions: cellular activity; Met autophosphorylation ELISA in PC-3 cells; read-out: c-Met IC50. In a few lines: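 PC-3 cells, serum-starved 3 h, were treated with compounds (8-point dose curve, 0.3% DMSO final) for 1 h, then stimulated with 100 ng/mL recombinant human HGF for 10 min. Lysate phospho-Met (panTyr) was quantified by sandwich ELISA; IC50 from 4-parameter logistic fit.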

In assay [3] the target is KDR (phospho-KDR, VEGF165-stimulated HUVEC cells) (Homo sapiens (Human), UniProt P35968). Nature of the assay: KDR autophosphorylation ELISA in HUVEC cells (Example G). The settings on record: cellular activity; KDR autophosphorylation ELISA in HUVEC cells. In a few lines:
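HUVEC cells, serum-starved 24 h, were treated 1 h with an 8-point compound dilution (0.3% DMSO) and then stimulated with 100 ng/mL VEGF165 for 5 min. Phospho-KDR in lysates was quantified by sandwich ELISA against a phospho-KDR standard. IC50 from a 4-parameter logistic fit, normalised between stimulated DMSO and unstimulated controls.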

Assay [4] addresses Mer (phospho-Mer, MERTK-transfected 293A cells) (Homo sapiens (Human), UniProt Q12866). The assay is described as follows: Mer autophosphorylation ELISA in transient transfected 293A cells (Example H). The settings on record: cellular activity; Mer autophosphorylation ELISA in transient transfected 293A cells. In a few lines:
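Inhibition of cellular Mer autophosphorylation is determined in 293A cells transiently expressing human MERTK after 1 h compound exposure (8 concentrations, serum-free, 0.3% DMSO). Phospho-Mer in clarified lysates is measured by ELISA, with DMSO and reference-inhibitor wells defining the 100% and 0% activity limits.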

Mer (phospho-Mer, MERTK-transfected 293A cells), sequence (Q12866 21-999): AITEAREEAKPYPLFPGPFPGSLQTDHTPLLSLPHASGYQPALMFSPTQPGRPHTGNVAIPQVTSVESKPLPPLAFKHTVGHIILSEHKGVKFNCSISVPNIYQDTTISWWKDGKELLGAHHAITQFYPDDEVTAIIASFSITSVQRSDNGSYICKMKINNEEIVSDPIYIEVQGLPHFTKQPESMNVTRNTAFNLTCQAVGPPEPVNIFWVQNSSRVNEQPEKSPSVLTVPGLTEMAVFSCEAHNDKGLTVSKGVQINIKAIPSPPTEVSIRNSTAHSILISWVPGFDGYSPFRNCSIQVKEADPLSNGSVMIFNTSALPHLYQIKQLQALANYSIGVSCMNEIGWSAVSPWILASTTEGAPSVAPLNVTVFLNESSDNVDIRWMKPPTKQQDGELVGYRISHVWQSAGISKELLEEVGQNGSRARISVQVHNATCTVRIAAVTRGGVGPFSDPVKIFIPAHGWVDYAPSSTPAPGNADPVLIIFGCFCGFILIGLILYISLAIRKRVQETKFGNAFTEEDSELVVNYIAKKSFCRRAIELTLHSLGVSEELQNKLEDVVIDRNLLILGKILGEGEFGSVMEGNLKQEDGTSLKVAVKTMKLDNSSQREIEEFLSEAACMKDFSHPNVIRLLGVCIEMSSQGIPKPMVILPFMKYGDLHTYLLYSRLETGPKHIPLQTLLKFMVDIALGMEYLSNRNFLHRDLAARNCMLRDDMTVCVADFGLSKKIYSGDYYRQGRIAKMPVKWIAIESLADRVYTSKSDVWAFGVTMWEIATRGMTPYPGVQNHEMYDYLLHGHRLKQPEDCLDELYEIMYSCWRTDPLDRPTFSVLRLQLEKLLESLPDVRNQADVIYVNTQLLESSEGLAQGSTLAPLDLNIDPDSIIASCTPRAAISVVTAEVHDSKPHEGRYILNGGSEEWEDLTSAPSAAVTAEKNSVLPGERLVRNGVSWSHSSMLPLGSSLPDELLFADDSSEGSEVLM
KDR (phospho-KDR, VEGF165-stimulated HUVEC cells), sequence (P35968 20-1356): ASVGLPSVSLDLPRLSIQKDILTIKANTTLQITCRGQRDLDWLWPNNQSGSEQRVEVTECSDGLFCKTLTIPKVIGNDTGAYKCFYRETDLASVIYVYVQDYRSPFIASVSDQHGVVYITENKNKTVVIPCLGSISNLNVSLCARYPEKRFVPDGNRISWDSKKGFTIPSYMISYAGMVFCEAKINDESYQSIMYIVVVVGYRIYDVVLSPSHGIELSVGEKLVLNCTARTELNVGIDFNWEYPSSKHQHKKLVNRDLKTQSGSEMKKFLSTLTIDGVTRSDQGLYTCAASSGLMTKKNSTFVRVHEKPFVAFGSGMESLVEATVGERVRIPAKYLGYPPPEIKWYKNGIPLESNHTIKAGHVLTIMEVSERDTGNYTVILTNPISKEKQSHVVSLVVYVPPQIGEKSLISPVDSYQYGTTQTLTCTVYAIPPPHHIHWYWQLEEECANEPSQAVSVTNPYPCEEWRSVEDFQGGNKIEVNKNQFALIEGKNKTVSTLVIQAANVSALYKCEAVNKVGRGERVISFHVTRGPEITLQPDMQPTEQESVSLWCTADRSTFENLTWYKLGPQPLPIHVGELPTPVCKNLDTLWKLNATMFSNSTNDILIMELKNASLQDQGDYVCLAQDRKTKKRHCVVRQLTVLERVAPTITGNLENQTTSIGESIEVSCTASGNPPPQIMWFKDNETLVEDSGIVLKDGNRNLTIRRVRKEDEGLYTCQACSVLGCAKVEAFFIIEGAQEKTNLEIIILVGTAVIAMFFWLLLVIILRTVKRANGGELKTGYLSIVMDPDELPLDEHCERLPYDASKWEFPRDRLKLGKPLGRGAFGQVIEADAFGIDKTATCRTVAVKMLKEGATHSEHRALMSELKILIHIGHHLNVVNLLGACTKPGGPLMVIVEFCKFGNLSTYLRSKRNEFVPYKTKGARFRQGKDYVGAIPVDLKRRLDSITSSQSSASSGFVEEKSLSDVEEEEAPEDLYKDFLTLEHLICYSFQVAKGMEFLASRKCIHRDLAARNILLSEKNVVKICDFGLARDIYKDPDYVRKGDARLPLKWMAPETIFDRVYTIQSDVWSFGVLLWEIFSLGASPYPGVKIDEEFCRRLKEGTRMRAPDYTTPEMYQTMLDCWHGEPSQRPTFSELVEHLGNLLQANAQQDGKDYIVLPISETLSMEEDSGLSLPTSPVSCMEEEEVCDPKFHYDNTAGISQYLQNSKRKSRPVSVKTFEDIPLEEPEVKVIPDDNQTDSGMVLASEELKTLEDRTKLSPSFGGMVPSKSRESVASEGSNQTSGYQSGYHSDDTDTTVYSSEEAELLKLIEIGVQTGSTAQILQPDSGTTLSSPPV
Met (phospho-Met, HGF-stimulated PC-3 prostate cancer cells), sequence (P08581 25-1390): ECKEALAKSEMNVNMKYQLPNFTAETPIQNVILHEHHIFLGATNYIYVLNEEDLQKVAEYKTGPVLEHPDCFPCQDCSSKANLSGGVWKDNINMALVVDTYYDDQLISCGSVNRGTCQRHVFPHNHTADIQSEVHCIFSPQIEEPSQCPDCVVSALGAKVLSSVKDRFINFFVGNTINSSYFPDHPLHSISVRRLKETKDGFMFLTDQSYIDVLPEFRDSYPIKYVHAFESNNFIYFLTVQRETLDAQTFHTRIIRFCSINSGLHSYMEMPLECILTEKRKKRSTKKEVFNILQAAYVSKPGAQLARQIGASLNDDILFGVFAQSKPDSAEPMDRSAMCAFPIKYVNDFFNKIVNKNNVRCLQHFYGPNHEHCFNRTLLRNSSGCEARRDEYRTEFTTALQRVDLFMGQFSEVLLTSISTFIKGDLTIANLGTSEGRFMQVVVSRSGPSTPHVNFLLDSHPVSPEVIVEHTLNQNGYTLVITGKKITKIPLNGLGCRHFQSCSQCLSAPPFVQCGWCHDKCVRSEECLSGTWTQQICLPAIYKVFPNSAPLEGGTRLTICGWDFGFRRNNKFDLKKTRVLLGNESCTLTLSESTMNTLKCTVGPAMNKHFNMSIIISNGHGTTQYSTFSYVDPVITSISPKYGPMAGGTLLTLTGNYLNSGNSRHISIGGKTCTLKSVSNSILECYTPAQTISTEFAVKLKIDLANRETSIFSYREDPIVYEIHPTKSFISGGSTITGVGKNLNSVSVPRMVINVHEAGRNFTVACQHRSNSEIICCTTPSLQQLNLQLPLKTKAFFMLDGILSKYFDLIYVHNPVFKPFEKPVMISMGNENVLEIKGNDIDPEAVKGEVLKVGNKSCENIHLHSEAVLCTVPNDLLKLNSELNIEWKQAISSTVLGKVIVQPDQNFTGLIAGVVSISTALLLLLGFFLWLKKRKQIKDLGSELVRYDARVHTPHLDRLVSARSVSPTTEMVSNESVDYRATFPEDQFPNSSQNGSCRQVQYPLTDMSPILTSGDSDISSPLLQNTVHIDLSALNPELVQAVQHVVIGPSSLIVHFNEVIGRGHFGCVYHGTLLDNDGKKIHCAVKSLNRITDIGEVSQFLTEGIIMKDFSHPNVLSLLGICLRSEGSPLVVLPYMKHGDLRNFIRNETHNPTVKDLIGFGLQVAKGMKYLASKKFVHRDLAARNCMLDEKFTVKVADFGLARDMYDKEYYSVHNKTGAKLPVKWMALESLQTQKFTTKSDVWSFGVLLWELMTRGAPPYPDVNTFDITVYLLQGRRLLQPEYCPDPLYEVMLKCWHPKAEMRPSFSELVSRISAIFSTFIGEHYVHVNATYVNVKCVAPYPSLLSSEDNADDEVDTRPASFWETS
AXL (phospho-AXL, Gas6-stimulated A-172 glioblastoma cells), sequence (P30530 26-894): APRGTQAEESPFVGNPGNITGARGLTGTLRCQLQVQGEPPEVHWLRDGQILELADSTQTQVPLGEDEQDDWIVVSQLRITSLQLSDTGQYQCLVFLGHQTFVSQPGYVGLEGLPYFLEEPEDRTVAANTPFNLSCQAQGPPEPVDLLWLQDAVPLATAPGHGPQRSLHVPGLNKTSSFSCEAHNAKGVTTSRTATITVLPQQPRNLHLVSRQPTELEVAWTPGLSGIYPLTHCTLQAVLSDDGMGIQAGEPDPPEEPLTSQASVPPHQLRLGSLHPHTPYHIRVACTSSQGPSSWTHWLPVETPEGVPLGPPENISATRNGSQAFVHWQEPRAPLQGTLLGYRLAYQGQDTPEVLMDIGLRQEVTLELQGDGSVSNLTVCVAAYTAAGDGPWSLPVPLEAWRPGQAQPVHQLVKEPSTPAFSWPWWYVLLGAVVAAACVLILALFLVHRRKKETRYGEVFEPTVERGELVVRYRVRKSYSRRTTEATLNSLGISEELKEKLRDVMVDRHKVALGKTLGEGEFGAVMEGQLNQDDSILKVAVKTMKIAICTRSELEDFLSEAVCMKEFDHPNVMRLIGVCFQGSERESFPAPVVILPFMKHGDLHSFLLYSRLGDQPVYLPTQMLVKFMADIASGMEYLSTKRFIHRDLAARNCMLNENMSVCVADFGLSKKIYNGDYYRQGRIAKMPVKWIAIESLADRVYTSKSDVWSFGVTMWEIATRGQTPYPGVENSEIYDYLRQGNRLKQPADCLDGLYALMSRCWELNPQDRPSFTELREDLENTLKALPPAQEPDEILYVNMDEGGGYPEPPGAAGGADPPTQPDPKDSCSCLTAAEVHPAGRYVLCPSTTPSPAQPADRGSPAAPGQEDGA

In general, pIC50 refers to the IC50 on a negative log10 scale, so that one unit is a factor of ten. As for `COc1nc2c(Oc3ccc(NC(=O)c4c(C)nc(C)c(-c5ccc(F)cc5C)c4O)cc3F)ccnc2cc1C` [Compound 471, N-[3-fluoro-4-[(6-methoxy-7-methyl-1,5-naphthyridin-4-yl)oxy]phenyl]-5-(4-fluoro-2-methylphenyl)-4-hydroxy-2,6-dimethylpyridine-3-carboxamide], the pIC50 in assay [1], in assay [2], in assay [3] and in assay [4] was over 7.00 in each case.
For `COc1nc2c(Oc3ccc(NC(=O)c4n[nH]c(C)c(-c5ccc(F)cc5)c4=O)cc3F)ccnc2cc1C` [Compound 472, N-[3-fluoro-4-[(6-methoxy-7-methyl-1,5-naphthyridin-4-yl)oxy]phenyl]-5-(4-fluorophenyl)-6-methyl-4-oxo-1H-pyridazine-3-carboxamide], the pIC50 in assay [1], in assay [2], in assay [3] and in assay [4] was over 7.00 throughout.
Consider `COc1nc2c(Oc3ccc(NC(=O)c4n[nH]c(C)c(-c5ccc(F)cc5C)c4=O)cc3F)ccnc2cc1C` [Compound 473, N-[3-fluoro-4-[(6-methoxy-7-methyl-1,5-naphthyridin-4-yl)oxy]phenyl]-5-(4-fluoro-2-methylphenyl)-6-methyl-4-oxo-1H-pyridazine-3-carboxamide], for which the pIC50 in assay [1] is over 7.00; in assay [2] it was under 6.52; in assay [3] it was under 6.52; in assay [4] it was over 7.00.
As for `C=C(C)c1cnc2c(Oc3ccc(NC(=O)c4c(C)ncc(-c5ccc(F)cc5C)c4O)cc3F)ccnc2c1` [Compound 474, 5-(4-fluoro-2-methylphenyl)-N-[3-fluoro-4-[(7-prop-1-en-2-yl-1,5-naphthyridin-4-yl)oxy]phenyl]-4-hydroxy-2-methylpyridine-3-carboxamide], the pIC50 in assay [1], in assay [2], in assay [3] and in assay [4] was over 7.00 throughout.
Take `C=C(C)c1cnc2c(Oc3ccc(NC(=O)c4nn(CC)c(C)c(-c5ccc(F)cc5)c4=O)cc3F)ccnc2c1` [Compound 475, 1-ethyl-5-(4-fluorophenyl)-N-[3-fluoro-4-[(7-prop-1-en-2-yl-1,5-naphthyridin-4-yl)oxy]phenyl]-6-methyl-4-oxopyridazine-3-carboxamide]: the pIC50 in assay [1], in assay [2], in assay [3] and in assay [4] was over 7.00 in each case.
For the molecule `C=C(C)c1cnc2c(Oc3ccc(NC(=O)c4nnc(C)c(-c5ccc(F)cc5)c4OCC)cc3F)ccnc2c1` [Compound 476, 4-ethoxy-5-(4-fluorophenyl)-N-[3-fluoro-4-[(7-prop-1-en-2-yl-1,5-naphthyridin-4-yl)oxy]phenyl]-6-methylpyridazine-3-carboxamide], the pIC50 in assay [1], in assay [2], in assay [3] and in assay [4] was over 7.00 each time.
Consider `C=C(C)c1cnc2c(Oc3ccc(NC(=O)c4nn(C)c(C)c(-c5ccc(F)cc5)c4=O)cc3F)ccnc2c1` [Compound 477, 5-(4-fluorophenyl)-N-[3-fluoro-4-[(7-prop-1-en-2-yl-1,5-naphthyridin-4-yl)oxy]phenyl]-1,6-dimethyl-4-oxopyridazine-3-carboxamide], for which the pIC50 in assay [1] is over 7.00; in assay [2], over 7.00; in assay [3], under 6.52; in assay [4], over 7.00.
`C=C(C)c1cnc2c(Oc3ccc(NC(=O)c4nnc(C)c(-c5ccc(F)cc5)c4OC)cc3F)ccnc2c1` [Compound 478, 5-(4-fluorophenyl)-N-[3-fluoro-4-[(7-prop-1-en-2-yl-1,5-naphthyridin-4-yl)oxy]phenyl]-4-methoxy-6-methylpyridazine-3-carboxamide]: the negative-log IC50 (pIC50) in assay [1], in assay [2], in assay [3] and in assay [4] was over 7.00 each time.
Consider `COCCOc1cc2nccc(Oc3ccc(NC(=O)c4ccc(C)n(-c5ccc(F)cc5)c4=O)cc3F)c2nc1OC` [Compound 484, N-[3-fluoro-4-[[6-methoxy-7-(2-methoxyethoxy)-1,5-naphthyridin-4-yl]oxy]phenyl]-1-(4-fluorophenyl)-6-methyl-2-oxopyridine-3-carboxamide], for which the pIC50 in assay [1], in assay [2], in assay [3] and in assay [4] was over 7.00 each time.
On to `COCCOc1cc2nccc(Oc3ccc(NC(=O)c4c(C)cc(C)n(-c5ccc(F)cc5)c4=O)cc3F)c2nc1OC` [Compound 485, N-[3-fluoro-4-[[6-methoxy-7-(2-methoxyethoxy)-1,5-naphthyridin-4-yl]oxy]phenyl]-1-(4-fluorophenyl)-4,6-dimethyl-2-oxopyridine-3-carboxamide], for which the pIC50 in assay [1], in assay [2], in assay [3] and in assay [4] was over 7.00 throughout.
Regarding `COCCOc1cc2nccc(Oc3ccc(NC(=O)c4cn(C)c(C)c(-c5ccc(F)cc5)c4=O)cc3F)c2nc1OC` [Compound 486, N-[3-fluoro-4-[[6-methoxy-7-(2-methoxyethoxy)-1,5-naphthyridin-4-yl]oxy]phenyl]-5-(4-fluorophenyl)-1,6-dimethyl-4-oxopyridine-3-carboxamide], the pIC50 in assay [1], in assay [2], in assay [3] and in assay [4] was over 7.00 each time.
Turning to `COCCOc1cc2nccc(Oc3ccc(NC(=O)c4c(C)nc(C)c(-c5ccc(F)cc5C)c4O)cc3F)c2nc1OC` [Compound 487, N-[3-fluoro-4-[[6-methoxy-7-(2-methoxyethoxy)-1,5-naphthyridin-4-yl]oxy]phenyl]-5-(4-fluoro-2-methylphenyl)-4-hydroxy-2,6-dimethylpyridine-3-carboxamide], the pIC50 in assay [1], in assay [2], in assay [3] and in assay [4] was over 7.00 each time.
With `COc1cc2nccc(Oc3ccc(NC(=O)c4nnc(C)c(-c5ccc(F)cc5)c4Cl)cc3F)c2nc1OC` [Compound 488, 4-chloro-N-[4-[(6,7-dimethoxy-1,5-naphthyridin-4-yl)oxy]-3-fluorophenyl]-5-(4-fluorophenyl)-6-methylpyridazine-3-carboxamide], the pIC50 in assay [1] was 6.52 to 7.00; in assay [2], under 6.52; in assay [3], under 6.52; in assay [4], over 7.00.
As to `COc1cc2nccc(Oc3ccc(NC(=O)c4nnc(C)c(-c5ccc(F)cc5C)c4OC)cc3F)c2nc1OC` [Compound 489, N-[4-[(6,7-dimethoxy-1,5-naphthyridin-4-yl)oxy]-3-fluorophenyl]-5-(4-fluoro-2-methylphenyl)-4-methoxy-6-methylpyridazine-3-carboxamide], the negative logarithm of the IC50 (pIC50) in assay [1], in assay [2], in assay [3] and in assay [4] was over 7.00 throughout.
In the case of `COc1cc2nccc(Oc3ccc(NC(=O)c4c(C)ncc(Br)c4O)cc3F)c2nc1OC` [Compound 490, 5-bromo-N-[4-[(6,7-dimethoxy-1,5-naphthyridin-4-yl)oxy]-3-fluorophenyl]-4-hydroxy-2-methylpyridine-3-carboxamide], the pIC50 in assay [1] is 6.52 to 7.00; in assay [2], over 7.00; in assay [3], over 7.00; in assay [4], over 7.00.
In the case of `COc1cc2nccc(Oc3ccc(NC(=O)c4cn5cc(C)oc5c(-c5ccc(F)cc5)c4=O)cc3F)c2nc1OC` [Compound 491, N-[4-[(6,7-dimethoxy-1,5-naphthyridin-4-yl)oxy]-3-fluorophenyl]-8-(4-fluorophenyl)-2-methyl-7-oxo-[1,3]oxazolo[3,2-a]pyridine-6-carboxamide], the negative-log IC50 (pIC50) in assay [1] is over 7.00; in assay [2] it was over 7.00; in assay [3], under 6.52; in assay [4] it was over 7.00.
Turning to `Cc1ccc(C(=O)Nc2ccc(Oc3ccnc4cnc(Cl)cc34)c(F)c2)c(=O)n1-c1ccc(F)cc1` [Compound 496, N-[4-[(6-chloro-1,7-naphthyridin-4-yl)oxy]-3-fluorophenyl]-1-(4-fluorophenyl)-6-methyl-2-oxopyridine-3-carboxamide], the pIC50 in assay [1], in assay [2], in assay [3] and in assay [4] was over 7.00 throughout.
For the molecule `Cc1ncc(C(=O)Nc2ccc(Oc3ccnc4cnc(Cl)cc34)c(F)c2)c(=O)n1-c1ccc(F)cc1` [Compound 497, N-[4-[(6-chloro-1,7-naphthyridin-4-yl)oxy]-3-fluorophenyl]-1-(4-fluorophenyl)-2-methyl-6-oxopyrimidine-5-carboxamide], the pIC50 was over 7.00 in assay [1], over 7.00 in assay [2], under 6.52 in assay [3] and over 7.00 in assay [4].
